Test results from the supplement of paper PMC10307832.

Assays:
Assay in all cases: relative viability (nuclei count vs DMSO), 5 days (fraction); higher = more cells survive
[1] = compound: CC1=NC=CC(=C1)C2=CC=C(C=C2)CC(=O)NC3=CC=C(C=C3)C4=CN=CC=C4 [Wnt-C59]
Outline: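 Five library-drug doses spaced by √10 were pinned onto vehicle-anchored 1536-well plates of lung cancer cell lines that had been kept overnight at 37 °C. Cells went 5 days without medium change, then were fixed, permeabilised and Hoechst-stained together, imaged at 4× and counted by MetaXpress. Viability is the ratio of treated-well to vehicle-well nuclei, taken as a median over plates. Plates required control CV below 25% and at least one doubling.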

[2] = compound: CS(=O)(=O)CCNCc1ccc(-c2ccc3ncnc(Nc4ccc(OCc5cccc(F)c5)c(Cl)c4)c3c2)o1 [Lapatinib] + Cc1nc(Nc2ncc(C(=O)Nc3c(C)cccc3Cl)s2)cc(N2CCN(CCO)CC2)n1 [Dasatinib] (partner 0.075 µM)
Outline: (§1)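 Lung cancer cell lines in 1536-well plates were dosed by pin tool the day after seeding, either with one drug alone or with a fixed anchor-drug dose plus five library-drug doses (not always all listed) in √10 steps. After 5 days, cells were fixed and their nuclei stained in one step (final 0.05% Triton X-100, 1% formaldehyde, 1 ug/ml Hoechst), then counted on 4× images. Relative viability is the nuclei count in treated wells divided by that in vehicle wells. Values are medians of duplicate plates.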

[3] = compound: CS(=O)(=O)CCNCc1ccc(-c2ccc3ncnc(Nc4ccc(OCc5cccc(F)c5)c(Cl)c4)c3c2)o1 [Lapatinib] + Cc1nc(NC(=O)N2CCC[C@H]2C(N)=O)sc1-c1ccnc(C(C)(C)C(F)(F)F)c1 [Alpelisib] (partner 2 µM)
Outline: as §1

[4] = compound: CC1=NC=CC(=C1)C2=CC=C(C=C2)CC(=O)NC3=CC=C(C=C3)C4=CN=CC=C4 [Wnt-C59] + COc1cccc2cc(-c3nc([C@H]4CC[C@H](C(=O)O)CC4)n4ncnc(N)c34)[nH]c12 [OSI-027] (partner 0.5 µM)
Outline: as §1

LOU-NH91
relative viability ([1]; 0.001 µM): 0.978 | relative viability ([1]; 0.01 µM): 0.892 | relative viability ([1]; 0.03162 µM): 0.955 | relative viability ([1]; 0.1 µM): 1.04 | relative viability ([2]; first compound 0.02 µM): 0.365 | relative viability ([2]; first compound 0.06325 µM): 0.398 | relative viability ([2]; first compound 0.2 µM): 0.431 | relative viability ([2]; first compound 0.6325 µM): 0.46 | relative viability ([2]; first compound 2 µM): 0.404 | relative viability ([3]; first compound 0.02 µM): 0.661 | relative viability ([3]; first compound 0.06325 µM): 0.557 | relative viability ([3]; first compound 0.2 µM): 0.533 | relative viability ([3]; first compound 0.6325 µM): 0.508 | relative viability ([3]; first compound 2 µM): 0.472 | relative viability ([4]; first compound 0.001 µM): 0.76 | relative viability ([4]; first compound 0.01 µM): 0.571 | relative viability ([4]; first compound 0.03162 µM): 0.718 | relative viability ([4]; first compound 0.1 µM): 0.738

201T
relative viability ([1]; 0.001 µM): 0.972 | relative viability ([1]; 0.01 µM): 0.958 | relative viability ([1]; 0.03162 µM): 0.982 | relative viability ([1]; 0.1 µM): 0.976 | relative viability ([2]; first compound 0.02 µM): 0.566 | relative viability ([2]; first compound 0.06325 µM): 0.382 | relative viability ([2]; first compound 0.2 µM): 0.596 | relative viability ([2]; first compound 0.6325 µM): 0.62 | relative viability ([2]; first compound 2 µM): 0.599 | relative viability ([3]; first compound 0.02 µM): 0.998 | relative viability ([3]; first compound 0.06325 µM): 0.834 | relative viability ([3]; first compound 0.2 µM): 0.993 | relative viability ([3]; first compound 0.6325 µM): 1 | relative viability ([3]; first compound 2 µM): 0.943 | relative viability ([4]; first compound 0.001 µM): 0.717 | relative viability ([4]; first compound 0.01 µM): 0.725 | relative viability ([4]; first compound 0.03162 µM): 0.761 | relative viability ([4]; first compound 0.1 µM): 0.627

LXF-289
relative viability ([1]; 0.001 µM): 0.983 | relative viability ([1]; 0.01 µM): 0.993 | relative viability ([1]; 0.03162 µM): 0.999 | relative viability ([1]; 0.1 µM): 0.976 | relative viability ([2]; first compound 0.02 µM): 0.0714 | relative viability ([2]; first compound 0.06325 µM): 0.116 | relative viability ([2]; first compound 0.2 µM): 0.224 | relative viability ([2]; first compound 0.6325 µM): 0.273 | relative viability ([2]; first compound 2 µM): 0.179 | relative viability ([3]; first compound 0.02 µM): 0.987 | relative viability ([3]; first compound 0.06325 µM): 1.04 | relative viability ([3]; first compound 0.2 µM): 1.06 | relative viability ([3]; first compound 0.6325 µM): 0.987 | relative viability ([3]; first compound 2 µM): 0.922 | relative viability ([4]; first compound 0.001 µM): 0.779 | relative viability ([4]; first compound 0.01 µM): 0.807 | relative viability ([4]; first compound 0.03162 µM): 0.828 | relative viability ([4]; first compound 0.1 µM): 0.809
